PubChem BioAssay (NCI)
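Method: 48-hour compound exposure of cells in 96-well plates, five concentrations, linear interpolation of endpoints. GI50: concentration for 50% inhibition of growth. TGI: total growth inhibition.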

Legend:
Assay in all cases: NCI tumour cell line growth inhibition, 48 h
786-0 renal = system: 786-0 renal
A498 renal = system: A498 renal
A549 NSCLC = system: A549 NSCLC
ACHN renal = system: ACHN renal
BT-549 breast = system: BT-549 breast
CAKI-1 renal = system: CAKI-1 renal
CCRF-CEM leukemia = system: CCRF-CEM leukemia
COLO 205 colon = system: COLO 205 colon
DU-145 prostate = system: DU-145 prostate
EKVX NSCLC = system: EKVX NSCLC
HCC-2998 colon = system: HCC-2998 colon
HCT-116 colon = system: HCT-116 colon
HCT-15 colon = system: HCT-15 colon
HL-60(TB) leukemia = system: HL-60(TB) leukemia
HOP-62 NSCLC = system: HOP-62 NSCLC
HOP-92 NSCLC = system: HOP-92 NSCLC
HS 578T breast = system: HS 578T breast
HT29 colon = system: HT29 colon
IGROV1 ovarian = system: IGROV1 ovarian
K-562 leukemia = system: K-562 leukemia
KM12 colon = system: KM12 colon
LOX IMVI melanoma = system: LOX IMVI melanoma
M14 melanoma = system: M14 melanoma
MALME-3M melanoma = system: MALME-3M melanoma
MCF7 breast = system: MCF7 breast
MDA-MB-231 breast = system: MDA-MB-231 breast
MDA-MB-435 = system: MDA-MB-435
MDA-MB-468 breast = system: MDA-MB-468 breast
MOLT-4 leukemia = system: MOLT-4 leukemia
NCI-H226 lung = system: NCI-H226 lung
NCI-H23 lung = system: NCI-H23 lung
NCI-H460 lung = system: NCI-H460 lung
NCI-H522 lung = system: NCI-H522 lung
NCI/ADR-RES ovarian = system: NCI/ADR-RES ovarian
OVCAR-3 ovarian = system: OVCAR-3 ovarian
OVCAR-4 ovarian = system: OVCAR-4 ovarian
OVCAR-5 ovarian = system: OVCAR-5 ovarian
OVCAR-8 ovarian = system: OVCAR-8 ovarian
PC-3 prostate = system: PC-3 prostate
RPMI-8226 leukemia = system: RPMI-8226 leukemia
RXF 393 renal = system: RXF 393 renal
SF-268 CNS = system: SF-268 CNS
SF-295 CNS = system: SF-295 CNS
SF-539 CNS = system: SF-539 CNS
SK-MEL-2 melanoma = system: SK-MEL-2 melanoma
SK-MEL-28 melanoma = system: SK-MEL-28 melanoma
SK-MEL-5 melanoma = system: SK-MEL-5 melanoma
SK-OV-3 ovarian = system: SK-OV-3 ovarian
SN12C renal = system: SN12C renal
SNB-19 CNS = system: SNB-19 CNS
SR leukemia = system: SR leukemia
SW-620 colon = system: SW-620 colon
T-47D breast = system: T-47D breast
TK-10 renal = system: TK-10 renal
U251 CNS = system: U251 CNS
UACC-257 melanoma = system: UACC-257 melanoma
UACC-62 melanoma = system: UACC-62 melanoma
UO-31 renal = system: UO-31 renal

## COc1ccc(C(=O)/C=C/c2cccc3ccccc23)cc1S(N)(=O)=O
786-0 renal
  GI50: 1.86 µM
  TGI: 3.87 µM
A498 renal
  GI50: 13.2 µM
  TGI: 26.2 µM
A549 NSCLC
  GI50: 2.66 µM
  TGI: 9.65 µM
ACHN renal
  GI50: 1.89 µM
  TGI: 3.92 µM
BT-549 breast
  GI50: 1.77 µM
  TGI: 3.63 µM
CAKI-1 renal
  GI50: 2.42 µM
  TGI: 10.6 µM
CCRF-CEM leukemia
  GI50: 2.54 µM
  TGI: 6.95 µM
COLO 205 colon
  GI50: 1.67 µM
  TGI: 3.24 µM
DU-145 prostate
  GI50: 2.85 µM
  TGI: 10.8 µM
EKVX NSCLC
  GI50: 3.55 µM
  TGI: 13.5 µM
HCC-2998 colon
  GI50: 1.75 µM
  TGI: 3.24 µM
HCT-116 colon
  GI50: 1.33 µM
  TGI: 2.93 µM
HCT-15 colon
  GI50: 1.23 µM
  TGI: 3.2 µM
HL-60(TB) leukemia
  GI50: 1.36 µM
  TGI: 5.81 µM
HOP-62 NSCLC
  GI50: 2.03 µM
  TGI: 5.66 µM
HOP-92 NSCLC
  GI50: 2.14 µM
  TGI: 9.53 µM
HS 578T breast
  GI50: 5.21 µM
  TGI: 26.8 µM
HT29 colon
  GI50: 1.74 µM
  TGI: 3.92 µM
IGROV1 ovarian
  GI50: 2.3 µM
  TGI: 7.12 µM
K-562 leukemia
  GI50: 1.69 µM
  TGI: 7.54 µM
KM12 colon
  GI50: 1.46 µM
  TGI: 3.57 µM
LOX IMVI melanoma
  GI50: 1.35 µM
  TGI: 2.63 µM
M14 melanoma
  GI50: 2.03 µM
  TGI: 5.68 µM
MALME-3M melanoma
  GI50: 1.83 µM
  TGI: 4.2 µM
MCF7 breast
  GI50: 2.14 µM
  TGI: 8.58 µM
MDA-MB-231 breast
  GI50: 2.38 µM
  TGI: 6.49 µM
MDA-MB-435
  GI50: 2.23 µM
  TGI: 7.5 µM
MDA-MB-468 breast
  GI50: 1.53 µM
  TGI: 3.11 µM
MOLT-4 leukemia
  GI50: 2.3 µM
  TGI: 6.39 µM
NCI-H226 lung
  GI50: 3.1 µM
  TGI: 13.2 µM
NCI-H23 lung
  GI50: 2.21 µM
  TGI: 5.64 µM
NCI-H460 lung
  GI50: 1.79 µM
  TGI: 4.16 µM
NCI-H522 lung
  GI50: 1.61 µM
  TGI: 3.2 µM
NCI/ADR-RES ovarian
  GI50: 2.2 µM
  TGI: 6.4 µM
OVCAR-3 ovarian
  GI50: 1.8 µM
  TGI: 4.38 µM
OVCAR-4 ovarian
  GI50: 2.87 µM
  TGI: 11.3 µM
OVCAR-5 ovarian
  GI50: 1.84 µM
  TGI: 4.4 µM
OVCAR-8 ovarian
  GI50: 2.39 µM
  TGI: 10.1 µM
PC-3 prostate
  GI50: 2.31 µM
  TGI: 6.64 µM
RPMI-8226 leukemia
  GI50: 1.59 µM
  TGI: 5.34 µM
RXF 393 renal
  GI50: 1.57 µM
  TGI: 3.24 µM
SF-268 CNS
  GI50: 3.04 µM
  TGI: 11.1 µM
SF-295 CNS
  GI50: 2.38 µM
  TGI: 7.74 µM
SF-539 CNS
  GI50: 1.64 µM
  TGI: 3.06 µM
SK-MEL-2 melanoma
  GI50: 4.99 µM
  TGI: 17.8 µM
SK-MEL-28 melanoma
  GI50: 1.85 µM
  TGI: 3.64 µM
SK-MEL-5 melanoma
  GI50: 2.53 µM
  TGI: 7.71 µM
SK-OV-3 ovarian
  GI50: 3.72 µM
  TGI: 15.4 µM
SN12C renal
  GI50: 1.6 µM
  TGI: 3.91 µM
SNB-19 CNS
  GI50: 3.45 µM
  TGI: 13.7 µM
SR leukemia
  GI50: 0.749 µM
  TGI: 5.13 µM
SW-620 colon
  GI50: 1.62 µM
  TGI: 3.46 µM
T-47D breast
  GI50: 3.41 µM
  TGI: 14.1 µM
TK-10 renal
  GI50: 2.89 µM
  TGI: 10.2 µM
U251 CNS
  GI50: 1.5 µM
  TGI: 3.02 µM
UACC-257 melanoma
  GI50: 3.05 µM
  TGI: 12.3 µM
UACC-62 melanoma
  GI50: 1.53 µM
  TGI: 3 µM
UO-31 renal
  GI50: 1.48 µM
  TGI: 3.19 µM

## O=C(Nc1cc(Nc2ncccc2-c2ncnc3nc[nH]c23)ccc1F)c1cc(C(F)(F)F)cc(C(F)(F)F)c1
MDA-MB-468 breast
  GI50: 3 µM
  TGI: 8.36 µM

## O=C(/C(=C\c1c(-c2ccccc2)[nH]c2ccccc12)S(=O)(=O)c1ccccc1)c1ccccc1
MDA-MB-468 breast
  GI50: 4.18 µM
  TGI: > 100 µM

## O=C(NCc1ccc(Cn2c(=O)sn(-c3ccccc3)c2=O)cc1)OCc1ccc2cccc(O)c2n1
MDA-MB-468 breast
  GI50: 0.552 µM
  TGI: 2.14 µM

## CCCCCCCCCCNC(=O)CI
MDA-MB-468 breast
  GI50: 2.14 µM
  TGI: 4.86 µM

## COc1cc2c(Nc3cc(Cl)c(OC)c(Cl)c3)c(C#N)cnc2cc1OCCCN1CCN(C)CC1
MDA-MB-468 breast
  GI50: 0.267 µM
  TGI: 1.64 µM

## COc1ccc(/C(C)=C(\c2ccc(OCCN3CCCCCC3)cc2)c2ccc(OC(=O)C3CCCCC3)cc2)cc1
MDA-MB-468 breast
  GI50: 0.737 µM
  TGI: 2.84 µM

## C=CC(=O)N1CN(C(=O)C=C)CN(C(=O)C=C)C1
MDA-MB-468 breast
  GI50: 1.46 µM
  TGI: 3.4 µM

## Cc1cc(Nc2nc(-c3cn(-c4ccc(Cl)cc4)nn3)nc3ccccc23)n[nH]1
MDA-MB-468 breast
  GI50: 10.4 µM
  TGI: 30.5 µM

## N[C@H](CCC(=O)N[C@@H](Cc1c[nH]c2ccccc12)C(=O)O)C(=O)O
MDA-MB-468 breast
  GI50: > 100 µM
  TGI: > 100 µM

## Cn1cc(-c2csc(-c3cn(CCCCN4CCCCC4)c4ccccc34)n2)c2cccnc21
MDA-MB-468 breast
  GI50: 1.61 µM
  TGI: 3.29 µM

## O=C(NNc1nc2cc(F)cc(F)c2n2cccc12)c1ncccn1
MDA-MB-468 breast
  GI50: 0.59 µM
  TGI: 3.79 µM

## ClCCN(CCCl)c1ccc(CNc2ccccc2)cc1
MDA-MB-468 breast
  GI50: 2.14 µM
  TGI: 23.4 µM

## CC(C)c1[nH]nc2c1N=C(c1ccccc1Cl)c1cc([N+](=O)[O-])ccc1N2
MDA-MB-468 breast
  GI50: 2.93 µM
  TGI: 15.7 µM

## COc1ccc(-c2nc(-c3cc(OC)cc(OC)c3)[nH]c2-c2ccc(OC)cc2)cc1
MDA-MB-468 breast
  GI50: 2.78 µM
  TGI: > 100 µM
